Data reported in PubChem BioAssay (NCI).
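Protocol summary: plate cells (96-well), add compound at 5 concentrations, incubate 48 h, interpolate endpoints linearly. TGI: total growth inhibition.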

Assays:
Assay in all cases: NCI-60 cell line screen, 48 h
SW-620 colon = system: SW-620 colon
LOX IMVI melanoma = system: LOX IMVI melanoma
SN12C renal = system: SN12C renal
UACC-257 melanoma = system: UACC-257 melanoma
A498 renal = system: A498 renal
SK-MEL-5 melanoma = system: SK-MEL-5 melanoma
HOP-92 NSCLC = system: HOP-92 NSCLC
U251 CNS = system: U251 CNS
IGROV1 ovarian = system: IGROV1 ovarian
A549 NSCLC = system: A549 NSCLC
EKVX NSCLC = system: EKVX NSCLC
OVCAR-3 ovarian = system: OVCAR-3 ovarian
UACC-62 melanoma = system: UACC-62 melanoma
OVCAR-5 ovarian = system: OVCAR-5 ovarian
SNB-19 CNS = system: SNB-19 CNS
OVCAR-4 ovarian = system: OVCAR-4 ovarian
MDA-MB-231 breast = system: MDA-MB-231 breast
HCC-2998 colon = system: HCC-2998 colon
ACHN renal = system: ACHN renal
HOP-62 NSCLC = system: HOP-62 NSCLC
UO-31 renal = system: UO-31 renal
CCRF-CEM leukemia = system: CCRF-CEM leukemia
CAKI-1 renal = system: CAKI-1 renal
SF-268 CNS = system: SF-268 CNS
M14 melanoma = system: M14 melanoma
HS 578T breast = system: HS 578T breast
MDA-N = system: MDA-N
NCI/ADR-RES ovarian = system: NCI/ADR-RES ovarian
NCI-H460 lung = system: NCI-H460 lung
NCI-H23 lung = system: NCI-H23 lung
SK-MEL-2 melanoma = system: SK-MEL-2 melanoma
SK-OV-3 ovarian = system: SK-OV-3 ovarian
OVCAR-8 ovarian = system: OVCAR-8 ovarian
MALME-3M melanoma = system: MALME-3M melanoma
HT29 colon = system: HT29 colon
BT-549 breast = system: BT-549 breast
SF-295 CNS = system: SF-295 CNS
NCI-H226 lung = system: NCI-H226 lung
PC-3 prostate = system: PC-3 prostate
KM12 colon = system: KM12 colon
HCT-15 colon = system: HCT-15 colon
RXF 393 renal = system: RXF 393 renal
SNB-75 CNS = system: SNB-75 CNS
MCF7 breast = system: MCF7 breast
T-47D breast = system: T-47D breast
786-0 renal = system: 786-0 renal
COLO 205 colon = system: COLO 205 colon
NCI-H522 lung = system: NCI-H522 lung
DU-145 prostate = system: DU-145 prostate
HL-60(TB) leukemia = system: HL-60(TB) leukemia
MOLT-4 leukemia = system: MOLT-4 leukemia
RPMI-8226 leukemia = system: RPMI-8226 leukemia
TK-10 renal = system: TK-10 renal
SR leukemia = system: SR leukemia
MDA-MB-435 = system: MDA-MB-435
SK-MEL-28 melanoma = system: SK-MEL-28 melanoma

Compound | TGI (SW-620 colon) | TGI (LOX IMVI melanoma) | TGI (SN12C renal) | TGI (UACC-257 melanoma) | TGI (A498 renal) | TGI (HOP-92 NSCLC) | TGI (U251 CNS) | TGI (EKVX NSCLC) | TGI (OVCAR-3 ovarian) | TGI (UACC-62 melanoma) | TGI (OVCAR-5 ovarian) | TGI (SNB-19 CNS) | TGI (MDA-MB-231 breast) | TGI (HCC-2998 colon) | TGI (CCRF-CEM leukemia) | TGI (MDA-N) | TGI (NCI/ADR-RES ovarian) | TGI (NCI-H23 lung) | TGI (BT-549 breast) | TGI (NCI-H226 lung) | further results
CN(CCNC(=O)c1cn(C)c2c1ccc1ccccc12)CCNC(=O)c1cn(C)c2c1ccc1ccccc12 | > 100 µM | > 100 µM | 10.6 µM | 6.62 µM | > 34.5 µM | 5.26 µM | 4.58 µM | 6.93 µM | 11.4 µM | 12.7 µM | 3.52 µM | > 100 µM | 3.8 µM | 1.49 µM | > 100 µM | 4.25 µM | > 100 µM | > 100 µM | 6.87 µM | > 75.1 µM | TGI (SK-MEL-5 melanoma): > 100 µM; TGI (IGROV1 ovarian): 4.65 µM; TGI (A549 NSCLC): 11.1 µM; TGI (OVCAR-4 ovarian): 16.2 µM; TGI (ACHN renal): > 100 µM; TGI (HOP-62 NSCLC): 5.53 µM; TGI (UO-31 renal): 4.68 µM; TGI (CAKI-1 renal): > 100 µM; TGI (SF-268 CNS): > 21.3 µM; TGI (M14 melanoma): 2.97 µM; TGI (HS 578T breast): 3.11 µM; TGI (NCI-H460 lung): 3.72 µM; TGI (SK-MEL-2 melanoma): 4.6 µM; TGI (SK-OV-3 ovarian): 22.3 µM; TGI (OVCAR-8 ovarian): > 100 µM; TGI (MALME-3M melanoma): 5.13 µM; TGI (HT29 colon): > 100 µM; TGI (SF-295 CNS): > 22.2 µM; TGI (PC-3 prostate): 7.02 µM; TGI (KM12 colon): 2.98 µM
COc1cc(OCCN(C)C)c2[nH]c(C(=O)N3CC(CCl)c4c3cc(N)c3ccccc43)cc2c1 (centres undefined) | 0.265 µM | < 0.01 µM | – | – | < 0.01 µM | < 0.01 µM | – | 0.0521 µM | < 0.01 µM | < 0.01 µM | 0.213 µM | – | 1.17 µM | < 0.01 µM | > 100 µM | < 0.01 µM | 0.0498 µM | < 0.01 µM | 0.379 µM | 0.0311 µM | TGI (HCT-15 colon): 1.32 µM; TGI (RXF 393 renal): < 0.01 µM; TGI (SNB-75 CNS): 0.02 µM; TGI (HOP-62 NSCLC): < 0.01 µM; TGI (MCF7 breast): 0.011 µM; TGI (M14 melanoma): < 0.01 µM; TGI (T-47D breast): 1.79 µM; TGI (786-0 renal): < 0.01 µM; TGI (COLO 205 colon): 0.0102 µM; TGI (SK-MEL-2 melanoma): < 0.01 µM; TGI (SK-OV-3 ovarian): 1.32 µM; TGI (SF-295 CNS): 0.017 µM; TGI (PC-3 prostate): 0.736 µM; TGI (NCI-H522 lung): < 0.01 µM; TGI (DU-145 prostate): 1.08 µM
CC1(C)/C(=N\O)C2(OS(=O)(=O)C(F)(F)F)CCC1C2 (centres undefined) | – | – | > 100 µM | > 100 µM | > 100 µM | > 100 µM | > 100 µM | > 100 µM | – | > 100 µM | – | > 100 µM | > 100 µM | > 100 µM | > 100 µM | > 100 µM | > 100 µM | > 100 µM | > 100 µM | > 100 µM | TGI (HL-60(TB) leukemia): > 100 µM; TGI (HCT-15 colon): > 100 µM; TGI (MOLT-4 leukemia): > 100 µM; TGI (RPMI-8226 leukemia): > 100 µM; TGI (TK-10 renal): > 100 µM; TGI (SNB-75 CNS): > 100 µM; TGI (OVCAR-4 ovarian): > 100 µM; TGI (SR leukemia): > 100 µM; TGI (ACHN renal): > 100 µM; TGI (UO-31 renal): > 100 µM; TGI (CAKI-1 renal): > 100 µM; TGI (SF-268 CNS): > 100 µM; TGI (NCI-H460 lung): > 100 µM; TGI (OVCAR-8 ovarian): > 100 µM; TGI (MDA-MB-435): > 100 µM; TGI (SK-MEL-28 melanoma): > 100 µM; TGI (KM12 colon): > 100 µM
